Data taken from patent publication US10131652B2, “Pyrimidinyloxy benzene derivatives as herbicides” (E. I. DU PONT DE NEMOURS AND COMPANY, priority 2014, dated 2018).

Tests used:
Type in all cases: in vivo
[1] = system: ragweed (common ragweed, Ambrosia elatior); experiment: Test D pre-/postemergence plant response; settings: for Plant response rating, Ragweed: Preemergence
Method in brief: (§1)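 Visual injury scoring (0–100) at 13 to 15 days in greenhouse. Preemergence sprays on seeded loam/sand; postemergence sprays on 1–4 leaf plants.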

[2] = system: pigweed (Amaranthus retroflexus); experiment: Test D pre-/postemergence plant response; settings: for Plant response rating, Pigweed: Preemergence
Method in brief: as §1

[3] = system: giant foxtail (Setaria faberii); experiment: Test D pre-/postemergence plant response; settings: for Plant response rating (scale 0 to 100), Foxtail, Giant / Foxtail, Giant plant response rating: Postemergence; for Foxtail, Giant plant response rating / Plant response rating, Foxtail, Giant: scale 0 to 100 (0 no effect, 100 complete control); for Plant response rating, Foxtail, Giant: Preemergence
Method in brief: as §1

[4] = system: yellow nutsedge (Cyperus esculentus); experiment: Test D pre-/postemergence plant response; settings: for Plant response rating, Nutsedge, Yellow: Preemergence
Method in brief: as §1

[5] = system: soybean (Glycine max); experiment: Test D pre-/postemergence plant response; settings: for Plant response rating, Soybean: Preemergence
Method in brief: as §1

[6] = system: blackgrass (Alopecurus myosuroides); experiment: Test D pre-/postemergence plant response; settings: for Plant response rating (scale 0 to 100), Blackgrass / Blackgrass plant response rating: Postemergence; for Blackgrass plant response rating / Plant response rating, Blackgrass: scale 0 to 100 (0 no effect, 100 complete control); for Plant response rating, Blackgrass: Preemergence
Method in brief: as §1

[7] = system: waterhemp (common waterhemp, Amaranthus rudis); experiment: Test D pre-/postemergence plant response; settings: for Plant response rating, Waterhemp: Preemergence
Method in brief: as §1

[8] = system: barnyardgrass (Echinochloa crus-galli); experiment: Test D pre-/postemergence plant response; settings: for Plant response rating (scale 0 to 100), Barnyardgrass / Barnyardgrass plant response rating: Postemergence; for Barnyardgrass plant response rating / Plant response rating, Barnyardgrass: scale 0 to 100 (0 no effect, 100 complete control); for Plant response rating, Barnyardgrass: Preemergence
Method in brief: as §1

[9] = system: morningglory (Ipomoea coccinea); experiment: Test D pre-/postemergence plant response; settings: for Plant response rating, Morningglory: Preemergence
Method in brief: as §1

[10] = system: johnsongrass (Sorghum halepense); experiment: Test D pre-/postemergence plant response; settings: for Plant response rating, Johnsongrass: Preemergence
Method in brief: as §1

[11] = system: large (Lg) crabgrass (Digitaria sanguinalis); experiment: Test D pre-/postemergence plant response; settings: for Plant response rating (scale 0 to 100), Crabgrass, Large / Crabgrass, Large plant response rating: Postemergence; for Crabgrass, Large plant response rating / Plant response rating, Crabgrass, Large: scale 0 to 100 (0 no effect, 100 complete control); for Plant response rating, Crabgrass, Large: Preemergence
Method in brief: as §1

[12] = system: pigweed (Amaranthus retroflexus); experiment: Test B pre-/postemergence plant response
Method in brief: (§2)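 Ratings reflect visual injury versus untreated controls, from 0 for no effect to 100 for complete control, assessed roughly 10 days after treatment. Formulation: non-phytotoxic solvent mix with surfactant; pre- and postemergence sprays on plants grown in loam soil and sand.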

[13] = system: wheat (Triticum aestivum); experiment: Test B pre-/postemergence plant response
Method in brief: as §2

[14] = system: giant foxtail (Setaria faberii); experiment: Test B pre-/postemergence plant response
Method in brief: as §2

[15] = system: corn (Zea mays); experiment: Test B pre-/postemergence plant response
Method in brief: as §2

[16] = system: barnyardgrass (Echinochloa crus-galli); experiment: Test B pre-/postemergence plant response
Method in brief: as §2

[17] = Postemergence, 31 g ai/ha, scale 0 to 100 (0 no effect, 100 complete control)
[18] = 4 g ai/ha, scale 0 to 100 (0 no effect, 100 complete control)
[19] = 8 g ai/ha, scale 0 to 100 (0 no effect, 100 complete control)
[20] = 16 g ai/ha, scale 0 to 100 (0 no effect, 100 complete control)
[21] = 31 g ai/ha, scale 0 to 100 (0 no effect, 100 complete control)
[22] = 125 g ai/ha, postemergence, 0 to 100 scale, 0 no effect, 100 complete control
[23] = Postemergence, 500 g ai/ha, 0 to 100 scale (0 no effect, 100 complete control)
[24] = Preemergence, 125 g ai/ha, 0 to 100 scale (0 no effect, 100 complete control)
[25] = Preemergence, 500 g ai/ha, 0 to 100 scale where 0 is no effect and 100 is complete control

With N#Cc1cccc(Oc2ncc(Cl)cn2)c1-c1cc(C(F)(F)F)on1 [Compound 157] the “Plant response rating (scale 0 to 100), Ragweed” value ([1]; Postemergence, 4 g ai/ha) was 50, the “Plant response rating (scale 0 to 100), Ragweed” value ([1]; Postemergence, 8 g ai/ha) was 15 and the “Ragweed plant response rating” value [1, 17] was 25. For the same molecule, the “Plant response rating, Ragweed” value [1, 18] was 0, the “Plant response rating, Ragweed” value [1, 19] was 0 and the “Plant response rating, Ragweed” value [1, 20] was 0. For the same molecule, the “Plant response rating, Ragweed” value [1, 21] was 0, the “Plant response rating (scale 0 to 100), Pigweed” value ([2]; Postemergence, 4 g ai/ha) was 35 and the “Plant response rating (scale 0 to 100), Pigweed” value ([2]; Postemergence, 8 g ai/ha) was 70. The “Pigweed plant response rating” value [2, 17] was 65, the “Plant response rating, Pigweed” value [2, 18] was 20 and the “Plant response rating, Pigweed” value [2, 19] was 100. The “Plant response rating, Pigweed” value [2, 20] was 100, the “Plant response rating, Pigweed” value [2, 21] was 100 and the “Plant response rating (scale 0 to 100), Foxtail, Giant” value ([3]; 4 g ai/ha) was 0. For the same molecule, the “Plant response rating (scale 0 to 100), Foxtail, Giant” value ([3]; 8 g ai/ha) was 20, the “Foxtail, Giant plant response rating” value ([3]; 16 g ai/ha) was 40 and the “Foxtail, Giant plant response rating” value ([3]; 31 g ai/ha) was 20. The “Plant response rating, Foxtail, Giant” value ([3]; 4 g ai/ha) was 0, the “Plant response rating, Foxtail, Giant” value ([3]; 8 g ai/ha) was 0 and the “Plant response rating, Foxtail, Giant” value ([3]; 16 g ai/ha) was 0. For the same molecule, the “Plant response rating, Foxtail, Giant” value ([3]; 31 g ai/ha) was 20, the “Plant response rating (scale 0 to 100), Nutsedge, Yellow” value ([4]; Postemergence, 4 g ai/ha) was 0 and the “Plant response rating (scale 0 to 100), Nutsedge, Yellow” value ([4]; Postemergence, 8 g ai/ha) was 5. For the same molecule, the “Nutsedge, Yellow plant response rating” value [4, 17] was 10, the “Plant response rating, Nutsedge, Yellow” value [4, 18] was 0 and the “Plant response rating, Nutsedge, Yellow” value [4, 19] was 0. The “Plant response rating, Nutsedge, Yellow” value [4, 20] was 0, the “Plant response rating, Nutsedge, Yellow” value [4, 21] was 0 and the “Plant response rating (scale 0 to 100), Soybean” value ([5]; Postemergence, 4 g ai/ha) was 5. For the same molecule, the “Plant response rating (scale 0 to 100), Soybean” value ([5]; Postemergence, 8 g ai/ha) was 10, the “Soybean plant response rating” value [5, 17] was 35 and the “Plant response rating, Soybean” value [5, 18] was 0. For the same molecule, the “Plant response rating, Soybean” value [5, 19] was 0, the “Plant response rating, Soybean” value [5, 20] was 0 and the “Plant response rating, Soybean” value [5, 21] was 50. For the same molecule, the “Plant response rating (scale 0 to 100), Blackgrass” value ([6]; 4 g ai/ha) was 0, the “Plant response rating (scale 0 to 100), Blackgrass” value ([6]; 8 g ai/ha) was 0 and the “Blackgrass plant response rating” value ([6]; 16 g ai/ha) was 5. For the same molecule, the “Blackgrass plant response rating” value ([6]; 31 g ai/ha) was 5, the “Plant response rating, Blackgrass” value ([6]; 4 g ai/ha) was 0 and the “Plant response rating, Blackgrass” value ([6]; 8 g ai/ha) was 0. For the same molecule, the “Plant response rating, Blackgrass” value ([6]; 16 g ai/ha) was 0, the “Plant response rating, Blackgrass” value ([6]; 31 g ai/ha) was 5 and the “Plant response rating (scale 0 to 100), Waterhemp” value ([7]; Postemergence, 4 g ai/ha) was 20. For the same molecule, the “Plant response rating (scale 0 to 100), Waterhemp” value ([7]; Postemergence, 8 g ai/ha) was 55, the “Waterhemp plant response rating” value [7, 17] was 75 and the “Plant response rating, Waterhemp” value [7, 18] was 0. The “Plant response rating, Waterhemp” value [7, 19] was 70, the “Plant response rating, Waterhemp” value [7, 20] was 100 and the “Plant response rating, Waterhemp” value [7, 21] was 100. The “Plant response rating (scale 0 to 100), Barnyardgrass” value ([8]; 4 g ai/ha) was 0, the “Plant response rating (scale 0 to 100), Barnyardgrass” value ([8]; 8 g ai/ha) was 0 and the “Barnyardgrass plant response rating” value ([8]; 16 g ai/ha) was 5. For the same molecule, the “Barnyardgrass plant response rating” value ([8]; 31 g ai/ha) was 5, the “Plant response rating, Barnyardgrass” value ([8]; 4 g ai/ha) was 0 and the “Plant response rating, Barnyardgrass” value ([8]; 8 g ai/ha) was 0. For the same molecule, the “Plant response rating, Barnyardgrass” value ([8]; 16 g ai/ha) was 0, the “Plant response rating, Barnyardgrass” value ([8]; 31 g ai/ha) was 5 and the “Plant response rating (scale 0 to 100), Morningglory” value ([9]; Postemergence, 4 g ai/ha) was 0. For the same molecule, the “Plant response rating (scale 0 to 100), Morningglory” value ([9]; Postemergence, 8 g ai/ha) was 5, the “Morningglory plant response rating” value [9, 17] was 35 and the “Plant response rating, Morningglory” value [9, 18] was 0. The “Plant response rating, Morningglory” value [9, 19] was 0, the “Plant response rating, Morningglory” value [9, 20] was 0 and the “Plant response rating, Morningglory” value [9, 21] was 10. For the same molecule, the “Plant response rating (scale 0 to 100), Johnsongrass” value ([10]; Postemergence, 4 g ai/ha) was 0, the “Plant response rating (scale 0 to 100), Johnsongrass” value ([10]; Postemergence, 8 g ai/ha) was 0 and the “Johnsongrass plant response rating” value [10, 17] was 0. For the same molecule, the “Plant response rating, Johnsongrass” value [10, 18] was 0, the “Plant response rating, Johnsongrass” value [10, 19] was 0 and the “Plant response rating, Johnsongrass” value [10, 20] was 0. The “Plant response rating, Johnsongrass” value [10, 21] was 5, the “Plant response rating (scale 0 to 100), Crabgrass, Large” value ([11]; 4 g ai/ha) was 0 and the “Plant response rating (scale 0 to 100), Crabgrass, Large” value ([11]; 8 g ai/ha) was 5. The “Crabgrass, Large plant response rating” value ([11]; 16 g ai/ha) was 5, the “Crabgrass, Large plant response rating” value ([11]; 31 g ai/ha) was 5 and the “Plant response rating, Crabgrass, Large” value ([11]; 4 g ai/ha) was 0. For the same molecule, the “Plant response rating, Crabgrass, Large” value ([11]; 8 g ai/ha) was 0, the “Plant response rating, Crabgrass, Large” value ([11]; 16 g ai/ha) was 5 and the “Plant response rating, Crabgrass, Large” value ([11]; 31 g ai/ha) was 40. For the same molecule, the “Plant response rating, Pigweed” value [12, 22] was 100, the “Plant response rating, Pigweed” value [12, 23] was 100 and the “Pigweed plant response rating” value [12, 24] was 100. The “Plant response rating, Pigweed” value [12, 25] was 100, the “Plant response rating, Wheat” value [13, 22] was 50 and the “Plant response rating, Wheat” value [13, 23] was 70. The “Plant response rating, Foxtail, Giant” value [14, 22] was 70, the “Plant response rating, Foxtail, Giant” value [14, 23] was 80 and the “Foxtail, Giant plant response rating” value [14, 24] was 80. The “Plant response rating, Foxtail, Giant” value [14, 25] was 100, the “Plant response rating, Corn” value [15, 22] was 0 and the “Plant response rating, Corn” value [15, 23] was 40. The “Plant response rating, Barnyardgrass” value [16, 22] was 20, the “Plant response rating, Barnyardgrass” value [16, 23] was 60 and the “Barnyardgrass plant response rating” value [16, 24] was 20. The “Plant response rating, Barnyardgrass” value [16, 25] was 80.
